Tests used:
[1] = tested on: Ramos cells; experiment: Cell death (MTS) assay in Ramos cells; format: cell-based, human; settings: Ramos cells cultured with HDL NPs; inhibitor added at 1 μM
Procedure: (§1) MTS assays (CellTiter; Promega) were conducted as described previously. For the Ramos, SUDHL4, Raji, Daudi, Namalwa, SUDHL6 and Jurkat cells were plated at a density of 2×10^5 cells/mL, and cultured for 72 hours prior to assay. SUDHL1, SR-786, and U937 cells were plated at a density of 5×10^4 cells/mL and cultured for 5 days prior to MTS assay. The SCARB1 blocking and isotype control antibodies were added at a dilution of 1:1000 to 1:250. Ferrostatin-1 and deferoxamine (DFO) were obtained from Sigma Aldrich, and added at a final concentration of 1 μM. MTS values were standardized to PBS control.

[2] = tested on: SUDHL4 cells; experiment: Cell death (MTS) assay in SUDHL4 cells; format: cell-based, human; settings: SUDHL4 cells cultured with HDL NPs; inhibitor added at 1 μM
Procedure: as §1

[3] = tested on: 786-O (renal cell carcinoma-clear cell) cells; experiment: MTS cell death / rescue assay in 786-O cells; format: cell-based; settings: 786-O cells with HDL NPs
[4] = tested on: 769-P, a clear cell renal carcinoma cell line; experiment: MTS cell death / rescue assay in 769-P cells; format: cell-based; settings: 769-P cells with HDL NPs
[5] = tested on: OVCAR5 cell line; experiment: MTS cell death / rescue assay in OVCAR5 cells; format: cell-based; settings: OVCAR5 cells with HDL NPs
[6] = tested on: OVCAR5 CP Resistant Cell Line; experiment: MTS cell death / rescue assay in OVCAR5 CP Resistant cells; format: cell-based; settings: OVCAR5 CP Resistant cells with HDL NPs

Question: With `CCOC(=O)c1ccc(NC2CCCCC2)c(N)c1` [ferrostatin-1] as the molecule, how does the “effect on HDL NP induced cell death” value [1] read?
Answer: significantly inhibited

Question: What about the “effect on HDL NP induced cell death” value [2] of the same molecule?
Answer: significantly inhibited

Question: And the “effect on cell death induced by HDL NPs (MTS Rescue Assay)” value [3]?
Answer: rescued

Question: And the “effect on cell death induced by HDL NPs (MTS Rescue Assay)” value ([3]; listed as Ferrostatin-1)?
Answer: dramatic effects

Question: What about the “effect on cell death induced by HDL NPs (MTS)” value (from here on “effect … (MTS)”) [4] of the same molecule?
Answer: rescued

Question: What about the “effect … (MTS)” value [5] of the same molecule?
Answer: rescued

Question: What about the “effect … (MTS)” value [6] of the same molecule?
Answer: rescued

Reference: US20220331445A1, “HIGH DENSITY LIPOPROTEIN-LIKE NANOPARTICLES AS INDUCERS OF FERROPTOSIS IN CANCER” (Northwestern University, priority 2019, published 2022)
